Reference: patent US6368785B1 (Global Hemostasis Institute MGR AB, priority 1997, dated 2002)
Where a name gives a salt, the structure may show the parent alone. Read-outs that look alike come from different tables or passages of the source.

What was measured:
[1] = apparent dissociation constant of putative Ca*ligand complex from potentiometric Ca^2+ activity; assay type: physicochemical; details: 20 mM Hepes, pH 7.0 to 7.6, dilutions with 0.15 mM of NaCl, average of n determinations; for Kd: read-out: kd ± S.D.
Experimental: Bovine plasma deficient in vitamin K dependent coagulation factors and thromboplastin from rabbit brain were the corresponding components from PK-reagent GHI 129 detailed above. Ca^2+ activity and pH in plasma were determined potentiometrically with an ICA 2 (Radiometer, Copenhagen, Denmark) apparatus.
In order to identify compounds that could function as buffers for Ca^2+ at physiological levels, i.e. at about 1.3 mM of Ca^2+, water soluble compounds, either with reported dissociation constants in the range of 0.5 to 5 mM or otherwise appearing interesting, were experimentally investigated. Below, these compounds are referred to as Ca^2+ ligands or simply ligands. Experiments described below were performed to deduce the apparent dissociation constants under physiological like conditions and at ligand concentrations meaningful for Ca^2+ buffering.
Solution of 200 mM of ligand containing 20 mM of Hepes was adjusted to pH 7.4 and mixed with an equal volume of 100 mM of CaCl2 solution. These mixtures were diluted 1:2, 1:4, 1:8 and 1:16 with […]. […] From the experimentally determined Ca^2+ activity and the stoikiometric levels of ligand and Ca^2+, the apparent dissociation constant for a putative Ca*ligand complex was determined as the average of all available data.

[2] = cited from earlier work
[3] = addition of CaCl2 solution to anti-coagulant solutions to reach physiological Ca^2+; assay type: physicochemical; details: solutions of the Ca^2+ binding substance plus CaCl2
Excerpt: This gave rise to the idea that these substances could perform as anticoagulants also at near physiological levels of Ca^2+ activity. […] This was possible with iso-citrate but not with citrate. […] The following therefore only describes experiments with iso-citrate.

[4] = test system: prothrombin complex (coagulation factors VII, X and II); assay: coagulation time in prothrombin complex (PK) system with added citrate or iso-citrate; assay type: biochemical
Experimental: Activated partial thromboplastin time (APTT), prothrombin time (PT), prothrombin complex, (PK), assay, factor VIII and fibrin D-dimer were determined in compliance with manufacturers recommendations using the following reagents; PTT Automate, Diagnostica Stago, Asnieres-sur-Seine, France; Thromborel® S, Behring Diagnostics GmbH, Marburg, Germany; PK-reagent GHI 129, Global Hemostasis Institute MGR, Linköping, Sweden; and Coamatic® Factor VIII, Chromogenix, Mölndal, Sweden. The tests were performed on an Automated Coagulation Laboratory instrument, ACL, model 810 (Instrumentation Laboratory, Milan, Italy).
Coagulation analysis of blood and blood plasma are performed in many different ways. Most such analysis have the following in common. […] This Ca^2+ buffer capacity was determined in a system composed of sample, bovine plasma deficient in vitamin K dependent coagulation factors and rabbit brain thromboplastin. […] For each level of addition, the calcium ion buffering capacity of the analytical system was determined. The buffer capacity was determined at Ca^2+ activity in the range of 1 to 4 mM.
The assay response of the system described in Example 5 is investigated. […] The coagulation time is recorded. And after compacting of the coagulum by centrifugation for 3 minutes at 10,000×g, the Ca2+ activity is determined. […]

[5] = in 0.1 M NaClO4, read-out: published estimate
[6] = in 0.1 M KNO3, read-out: published estimate
[7] = prior art, at physiological conditions

For `O=C(O)c1ccccc1C(=O)O` [phthalate, phthalic acid], the Kd [1] is given as 26 ± 73 mM and the Kd ([2]; in 0.1 M KCl, read-out: published estimate) is given as 3.9 mM.
For `CC(C(=O)O)C(=O)O` [methylmalonate, methylmalonic acid], the Kd [1] is listed as 22 ± 3 mM and the Kd [2, 5] is listed as 22.4 mM.
For `O=C(O)CC(CC(=O)O)C(=O)O` [tricarballylate, tricarballylic acid], the Kd [1] was 22 ± 53 mM.
In the case of `O=C(O)CC(O)(CC(=O)O)C(=O)O` [citrate, Tri-sodium citrate], the Kd [1] is reported as 0.5 ± 0.05 mM, the “making solutions with physiological levels of Ca^2+ by adding CaCl2 solution” value [3] is reported as “formed precipitates” and the “inhibition of coagulation (coagulation time) in PK system” value ([4]; 5, 10 or 20 mM added, Ca^2+ activity 0.7 to 9 mM) is reported as “inhibit coagulation at all Ca^2+ activity levels”. The “inhibitory effect on coagulation time per molar unit, citrate versus iso-citrate” value ([4]; Ca^2+ activity of 1.5, FIG. 8) was “about twice as inhibitory as iso-citrate per molar unit”, the Kd ([2]; medium not given, read-out: published estimate) was 0.58 mM and the Kd ([2]; prior art, at physiological conditions, read-out: apparent dissociation constant of Ca^2+ complexes) was roughly 0.4 mM.
In the case of `CC(C)(C(=O)O)C(=O)O` [dimethylmalonate, dimethylmalonic acid], the Kd [2, 5] is listed as 30.2 mM.
Compound `O=C(O)/C=C(\CC(=O)O)C(=O)O` [trans-aconitate, trans-aconitic acid] has a Kd [1] of 29 ± 53 mM.
In the case of `O=C(O)C(=O)O` [oxalate, oxalic acid], the “kd ± S.D.” value [1] is given as “oxalate (precipitated)”, the Kd [2, 6] is given as 5 mM and the “apparent dissociation constant of Ca^2+ complexes” value [2, 7] is given as “considerably tighter”.
For `Nc1ncnc2nc[nH]c12` [adenine], the Kd [1] is given as 70 ± 40 mM and the Kd [2, 6] is given as 1.1 mM.
In the case of `O=C(O)CN(CCN(CC(=O)O)CC(=O)O)CC(=O)O` [EDTA], the “apparent dissociation constant of Ca^2+ complexes” value [2, 7] is listed as “considerably tighter”.
In the case of `O=C(O)CNCC(=O)O` [iminodiacetate], the Kd [1] is given as 29 ± 12 mM and the Kd ([2]; in 1 M KNO3, read-out: published estimate) is given as 8.1 mM.
For `Nc1nc(N)c2[nH]cnc2n1` [2,6-diaminopurine], the Kd [1] is given as 50 ± 24 mM and the Kd [2, 6] is given as 1.6 mM.
